We go through 6 compounds from patent US9150580B2, “Substituted imidazopyridines and the use thereof” (BAYER INTELLECTUAL PROPERTY GMBH, priority 2011, dated 2015).

Counter-ions that a name gives are not always drawn.

The subject of assay [1] is aorta rings. As to the kind of experiment: Vasorelaxant action in vitro (phenylephrine-contracted rabbit aorta rings). To be noted: Oryctolagus cuniculus, phenylephrine-induced contraction, organ bath 37° C., 0.1% DMSO, read-out: IC50 (concentration needed to reduce the magnitude of the control contraction by 50%). Here is the method: B-1. Vasorelaxant Action In Vitro
Rabbits are stunned by a blow to the neck and exsanguinated. The aorta is removed, freed from adhering tissue and divided into rings of a width of 1.5 mm. The rings are placed individually under an initial tension in 5 ml organ baths with Krebs-Henseleit solution which is at 37° C., is gassed with carbogen and has the following composition (in each case mM): sodium chloride 119; potassium chloride: 4.8; calcium chloride dihydrate: 1; magnesium sulfate heptahydrate: 1.4; potassium dihydrogenphosphate: 1.2; sodium bicarbonate: 25; glucose: 10. The contractile force is determined with Statham UC2 cells, amplified and digitalized using A/D transducers (DAS 1802 HC, Keithley Instruments Munich), and recorded in parallel on linear recorders. To obtain a contraction, phenylephrine is added to the bath cumulatively in increasing concentration. After several control cycles, the substance to be investigated is added in each further run in increasing dosage in each case, and the height of the contraction achieved is compared with the height of the contraction reached in the last preceding run. This is used to calculate the concentration needed to reduce the magnitude of the control value by 50% (IC50 value). The standard administration volume is 5 μl; the DMSO content in the bath solution corresponds to 0.1%.

In assay [2] the target is T1, recombinant guanylate cyclase reporter cell line (Rattus norvegicus, UniProt P19686+P20595).
T1 construct: expressed in transfected cells
T1 sequence (P19686 1-690): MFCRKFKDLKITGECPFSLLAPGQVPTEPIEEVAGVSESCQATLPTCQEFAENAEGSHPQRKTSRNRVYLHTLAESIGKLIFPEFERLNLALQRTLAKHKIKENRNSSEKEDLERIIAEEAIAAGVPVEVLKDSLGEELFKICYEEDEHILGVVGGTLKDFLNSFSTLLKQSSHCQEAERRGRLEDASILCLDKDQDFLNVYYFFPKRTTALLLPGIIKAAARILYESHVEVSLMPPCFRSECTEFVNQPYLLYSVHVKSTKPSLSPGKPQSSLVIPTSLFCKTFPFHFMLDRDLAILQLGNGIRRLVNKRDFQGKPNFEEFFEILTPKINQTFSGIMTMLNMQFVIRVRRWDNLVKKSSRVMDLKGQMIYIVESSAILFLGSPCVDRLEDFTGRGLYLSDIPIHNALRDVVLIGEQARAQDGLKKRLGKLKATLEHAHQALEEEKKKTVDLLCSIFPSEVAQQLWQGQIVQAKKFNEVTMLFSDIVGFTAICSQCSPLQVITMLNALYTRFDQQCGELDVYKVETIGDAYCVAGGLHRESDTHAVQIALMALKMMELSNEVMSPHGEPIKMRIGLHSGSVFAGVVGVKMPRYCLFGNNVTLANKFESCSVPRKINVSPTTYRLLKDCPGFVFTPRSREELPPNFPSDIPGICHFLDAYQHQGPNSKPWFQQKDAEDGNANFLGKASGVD
T1 sequence (P20595 1-619): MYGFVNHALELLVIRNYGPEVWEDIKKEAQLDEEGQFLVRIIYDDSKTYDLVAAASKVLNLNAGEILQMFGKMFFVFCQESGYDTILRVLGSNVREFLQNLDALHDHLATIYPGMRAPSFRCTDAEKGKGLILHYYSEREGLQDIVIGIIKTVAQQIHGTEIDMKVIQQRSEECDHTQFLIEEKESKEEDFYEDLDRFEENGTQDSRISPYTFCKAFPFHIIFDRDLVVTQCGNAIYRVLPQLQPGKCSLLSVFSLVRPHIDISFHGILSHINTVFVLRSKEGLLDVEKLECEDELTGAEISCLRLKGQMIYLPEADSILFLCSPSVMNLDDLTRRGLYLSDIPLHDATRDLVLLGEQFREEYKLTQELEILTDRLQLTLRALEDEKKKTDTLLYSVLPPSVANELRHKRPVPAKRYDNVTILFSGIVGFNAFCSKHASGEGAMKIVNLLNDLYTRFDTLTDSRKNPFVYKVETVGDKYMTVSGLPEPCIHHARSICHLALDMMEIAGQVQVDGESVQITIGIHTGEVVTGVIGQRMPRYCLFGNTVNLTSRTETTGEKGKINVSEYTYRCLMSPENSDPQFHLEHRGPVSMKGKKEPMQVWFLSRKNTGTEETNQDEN
As to the kind of experiment: Effect on a recombinant guanylate cyclase reporter cell line. It is filed as cell-based. To be noted: recombinant guanylate cyclase reporter cell line (Wunder et al. 2005). Here is the method:
B-2. Effect on a Recombinant Guanylate Cyclase Reporter Cell Line
The cellular activity of the compounds according to the invention is determined using a recombinant guanylate cyclase reporter cell line, as described in F. Wunder et al., Anal. Biochem. 339, 104-112 (2005).

Consider `COC(=O)N(Cc1ccccc1)c1c(N)nc(-c2nc(Cc3ccccc3F)n3ncccc23)nc1N` [Example 15, Methyl benzyl{4,6-diamino-2-[7-(2-fluorobenzyl)imidazo[1,5-b]pyridazin-5-yl]pyrimidin-5-yl}carbamate formate], for which the IC50 in assay [1] amounted to 171 nM. Moreover, the “MEC (minimum effective concentration)” value in assay [2] came out at 0.01 µM.

Regarding `Nc1nc(-c2nc(Cc3ccccc3F)n3ncccc23)nc(N)c1NC(=O)OC1CCC1` [Example 11, Cyclobutyl {4,6-diamino-2-[7-(2-fluorobenzyl)imidazo[1,5-b]pyridazin-5-yl]pyrimidin-5-yl}carbamate formate], the IC50 in assay [1] amounted to 422 nM. In addition, in assay [2], the “MEC (minimum effective concentration)” value came out at 0.3 µM.

`CCN(C(=O)OC)c1c(N)nc(-c2nc(Cc3ccccc3F)n3ncccc23)nc1N` [Example 8, Methyl {4,6-diamino-2-[7-(2-fluorobenzyl)imidazo[1,5-b]pyridazin-5-yl]pyrimidin-5-yl}ethylcarbamate formate]: the IC50 in assay [1] is 152 nM. The “MEC (minimum effective concentration)” value in assay [2] was 0.1 µM.

As for `COC(=O)N(Cc1cccc(F)c1)c1c(N)nc(-c2nc(Cc3ccccc3F)n3ncccc23)nc1N` [Example 19, Methyl {4,6-diamino-2-[7-(2-fluorobenzyl)imidazo[1,5-b]pyridazin-5-yl]pyrimidin-5-yl}(3-fluorobenzyl)carbamate formate], the IC50 in assay [1] stood at 81 nM. Besides, the “MEC (minimum effective concentration)” value in assay [2] came to 0.1 µM.

As to `Nc1nc(N)nc(-c2nc(Cc3ccccc3F)n3ncccc23)n1` [Example 1, 6-[7-(2-Fluorobenzyl)imidazo[1,5-b]pyridazin-5-yl]-1,3,5-triazine-2,4-diamine formate], the IC50 in assay [1] worked out at 130 nM. Also, in assay [2], the “MEC (minimum effective concentration)” value was found to be 0.03 µM.

On to `CCOC(=O)Nc1c(N)nc(-c2nc(Cc3ccccc3F)n3ncccc23)nc1N` [Example 5, Ethyl {4,6-diamino-2-[7-(2-fluorobenzyl)imidazo[1,5-b]pyridazin-5-yl]pyrimidin-5-yl}carbamate formate], for which, in assay [1], the IC50 is 200 nM. For the same compound, the “MEC (minimum effective concentration)” value in assay [2] turned out to be 0.3 µM.
